Results on one molecule are retold here after patent publication US6376488B1, “Benzoxazine α-1 adrenergic compounds” (Abbott Laboratories, priority 2000, dated 2002).

What is called melting point is the temperature, or range, at which the solid turns liquid. A word on the Ki: it is the equilibrium dissociation constant of an inhibitor or competing ligand from its target. High values mean lower affinity, low ones higher affinity.

The target in series [1] is T1, α1a (rat) adrenoreceptor (Rattus norvegicus, UniProt P43140).
T1 sequence (P43140 1-466): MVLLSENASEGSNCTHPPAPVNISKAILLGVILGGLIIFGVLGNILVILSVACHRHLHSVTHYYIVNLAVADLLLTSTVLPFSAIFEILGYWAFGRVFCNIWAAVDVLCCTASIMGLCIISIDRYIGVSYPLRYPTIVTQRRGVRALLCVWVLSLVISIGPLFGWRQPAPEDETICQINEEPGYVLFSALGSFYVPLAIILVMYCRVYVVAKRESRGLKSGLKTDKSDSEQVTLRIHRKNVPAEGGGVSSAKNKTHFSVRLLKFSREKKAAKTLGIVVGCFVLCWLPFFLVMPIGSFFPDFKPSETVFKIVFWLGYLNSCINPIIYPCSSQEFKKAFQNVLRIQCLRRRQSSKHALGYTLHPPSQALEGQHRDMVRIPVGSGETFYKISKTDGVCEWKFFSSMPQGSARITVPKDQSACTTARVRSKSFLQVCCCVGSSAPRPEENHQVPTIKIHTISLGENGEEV
Nature of the series: [3H]-prazosin radioligand binding, cloned α1a (rat) adrenoreceptor in LTK cells. Conditions: cloned receptor in LTK cell membranes, [3H]prazosin 0.2 nM. The text has this: The cDNA clones encoding the α1, adrenoreceptors were obtained from TULCO (Triangle Universities Licensing Consortium, Research Triangle Park, N.C.) and inserted into the eukaryotic expression vector SnaB30. In this vector, expression of the adrenoreceptor gene is under the transcriptional control of an SV40 early promoter. Positive drug selection is provided by a neomycin-resistance gene. Mouse fibroblast cells (LTK) were transfected with the α1 expression plasmids and grown in Dulbecco's modified Eagle's medium (DMEM) containing 10% fetal calf serum and 30 μM G418. […] Stable single cell clones derived from the parental lines were screened in adrenoreceptor binding assays to identify clones having high adrenoreceptor density. Roller bottle cultures of the cloned lines were used to provide cell membranes for subsequent adrenoreceptor binding characterization studies. A cell line containing the SnaB30 vector expressing the human erythropoietin gene served as a negative control.
For adrenoreceptor binding assays, large scale membrane preparations were utilized in which 6 million cells were seeded into small (450 cm^2) Coming tissue culture roller bottles. DMEM (200 mL) containing 10% fetal calf serum and 300 μM G418 were added to each roller bottle. A 95% air/5% CO2 gas mixture (sterile) was injected into each roller bottle prior to sealing, and the bottles were then incubated at 37° C. on a roller rack for 5 days. Cells were refed with fresh medium after 3 days in culture.
On the fifth day of culture, growth medium was removed from cells grown in roller bottles, and the cells were washed twice with PBS (Sigma, 120 mM NaCl, 2.7 mM KCl, 10 mM Na2HPO4-NaH2PO4, pH=7.4). Cells were detached from the roller bottles by incubating for 15 minutes at 37° C. in a Tris-EDTA solution (10 mM Tris, 100 mM NaCl, 1 mM EDTA, pH=7.4). The cell suspension from each roller bottle was decanted into tared centrifuge tubes and kept on ice. An aliquot of each cell suspension was generally taken for cell counting. Cells were centrifuged at 3000×G for 5 minutes at 2-4° C., washed with PBS and recentrifuged. The supernatant was decanted, and the pellet was weighed to determine the wet weight of cells. Cells were washed a final time in 40 vol 5 mM Tris-HCl, 5 mM EDTA, pH=7.7 and centrifuged at 40,000×G for 10 minutes (“vol” indicates volume/weight, e.g., a “vol” of 40 would indicate that the one gram of cells were washed with 40 mls of buffer). Cells were homogenized in of 50 mM Tris-HCl, 5 mM EDTA (pH=7.4) (10 mL) and diluted to 40 mL/tube. Homogenates were centrifuged at 40,000×G for 10 minutes. The supernatant was decanted and the pellets rehomogenized in 50 mM Tris-HCl (pH=7.4) and centrifuged as before.
Following equilibration, bound radioligand was separated from free on GF/B filters (presoaked in 0.5% polyethyleneimine) using ither a Brandel or Packard cell harvester. Radioactivity was determined by standard liquid scintillation techniques.

`COc1cccc2c1N1CCN(CCn3c(=O)[nH]c4c(sc5cccnc54)c3=O)CC1CO2.Cl.Cl.Cl` (single isomer, unassigned; (+)) [Example 16, (+) 3-[2-(10-methoxy-1,2,4a,5-tetrahydropyrazino[2,1-c][1,4]benzoxazin-3(4H)-yl)ethyl]pyrido[2′,3′:4,5]thieno[3,2-d]pyrimidine-2,4(1H,3H)-dione trihydrochloride] gave a melting point of 301 to 302 °C. The molecule also showed a Ki in series [1] of 1.24 nM.
